Values of other authors, collected in patent publication US5849696A, “Composition and method of treating hepatitis C” (The Board of Governors of Wayne State University, priority 1993, dated 1998).
Like-named read-outs stand apart in the source and are kept apart here. Where no end group is shown, it is not given here.

Legend:
HCV = conditions: in vivo
[1] = tested on: natural killer-cell activity; conditions: THNα1 together with interferon, immunosuppressed mice
hepatitis B virus (HBV) = conditions: treated for a year
[2] = tested on: Woodchuck Hepatitis Virus; conditions: woodchuck infected with Woodchuck Hepatitis Virus
[3] = tested on: nonsmall cell lung cancer
[4] = tested on: chronic hepatitis C (NANB hepatitis)

In the case of `Nc1nc2c(ncn2COCCO)c(=O)[nH]1` [acyclovir], the “effect on HCV-related diseases” value (HCV) is given as “ineffective”.
In the case of “Thymosin α-1 (SDAAVDTSSEITTKDLKEKKEVVEEAEN; ends and bridges not checked; UniProt P06454 2-29, looked up) [THNα1]”, the interleukin-2 receptor expression (human lymphocytes) is listed as “increase”, the “production of interferon-α, interferon-γ and interleukin-2” value (human lymphocytes) is listed as “promote production” and the “effect on natural killer-cell activity” value [1] is listed as “synergistic effect”. For the same molecule, the “clinical or biochemical toxicity” value (influenza vaccine; drug recipients) was “No clinical or biochemical toxicity was observed”, the “levels of antibody to influenza” value (influenza vaccine; six weeks post-vaccine, subcutaneously twice weekly) was “higher levels of antibody to influenza than controls” and the “patients with reduced levels of serum HBV DNA” value (hepatitis B virus (HBV); pooled THNα1 (5 patients) and TF-5 (2 patients)) was 6 of the 7. For the same molecule, the “patients initially positive for serum HBsAg who subsequently cleared this antigen” value (hepatitis B virus (HBV); pooled THNα1 and TF-5 patients) was 5 of 6, the “serum ALT” value (hepatitis B virus (HBV); THNα1 (5 patients) or TF-5 (2 patients)) was “marked decrease” and the clinical parameters [2] was “no improvement”. For the same molecule, the “viral DNA replication” value [2] was “suppressed viral DNA replication”, the immune function ([3]; after radiotherapy) was “some restoration of radiation-suppressed immune function” and the “relapse-free survival and overall survival” value ([3]; both THNα1 treatment groups versus placebo group) was “greater”. The T-cell numbers ([3]; human, in vivo) was “no increase”.
In the case of interferon α, the “relapse within six months after the completion of treatment” value ([4]; 1 MU) is listed as 44%, the “serum ALT response” value ([4]; 1 MU three times weekly for 24 weeks, nine of sixteen patients) is listed as 56% and the liver histology ([4]; 3 MU) is listed as “histologic improvement”. For the same molecule, the “relapse within six months after the completion of treatment” value ([4]; 3 MU) was 51%, the “serum ALT level became completely normal” value ([4]; 3 MU three times weekly for 24 weeks, 22 of the 26 patients who responded) was 85% and the “mean serum ALT and histological features of the liver” value (chronic HCV infection; 2 MU subcutaneously three times weekly for six months) was “improved significantly”. For the same molecule, the “complete response (decline in mean serum ALT to the normal range during therapy)” value (chronic HCV infection; 2 MU subcutaneously three times weekly for six months, ten of twenty-one patients) was 48%, the “further patients with decrease in mean ALT of more than 50%” value (chronic HCV infection; 2 MU three times weekly for six months) was “three” and the “patients still with normal serum ALT values” (chronic HCV infection; six to twelve months after discontinuation of therapy, two patients) was 10%. The “mean serum ALT levels during the 24 week treatment period” value (chronic NANB hepatitis; 1 MU three times a week) was “decreased”, the “proportion of patients with normal ALT levels” value (“proportion of patients” below) (chronic NANB hepatitis; at 24 weeks, 1 MU group) was 45% and the “proportion of patients” value (chronic NANB hepatitis; at 24 weeks, 3 MU group) was 39%. For the same molecule, the “proportion of patients” value (chronic NANB hepatitis; at week 48, 1 MU group) was 20%, the “proportion of patients” value (chronic NANB hepatitis; at week 48, 3 MU group) was 28% and the “repeat liver biopsy, severity of histological changes” value (chronic NANB hepatitis; higher dose group (3 MU)) was “significant decrease in the severity of histological changes”. The “relapse in disease activity when interferon was stopped” value (chronic NANB hepatitis; responders) was “approximately half of the responders”.
